# Measurements from patent US12352763B2, “Method of determining autophagosome flux and uses thereof” (Stellenbosch University, priority 2016, dated 2025).
# How the values were obtained:
# LC3, p62 and pmTOR = experiment: Western blot analysis probing for LC3, p62 and pmTOR (validation); assay type: cell-based; conditions: treatment with bafilomycin
# Procedure: FIG. 8 is a Western blot analysis probing for LC3, p62 and pmTOR. […] This method, however, cannot measure dynamic changes and vesicular pool size required to measure autophagosome flux. […] Western blot analysis and TEM was performed in the presence and absence of bafilomycin A1. […] Therefore, autophagosome flux cannot be accurately assessed. It allows the detection of the respective protein, LC3 II, from a whole cell population, without linking the protein band signal to single cell pool sizes of entities. Moreover, the nature of Western blot analysis omits any measurements of dynamic changes (FIG. 8).
# [1] = tested on: mouse embryonic fibroblast (MEF) cells; experiment: Determining complete fusion inhibition: saturating inhibitor concentration, Western blot; assay type: cell-based
# From the text: FIG. 2 is a Western blot analysis and corresponding graphs illustrating the results of the study to determine the saturating inhibitor concentration of bafilomycin A1 required to fully block autophagosomal/lysosomal fusion.
# This saturating concentration should be determined prior to performing the method. […] Although this can be performed through Western blot analysis, a more precise technique is to determine the change over time of the autophagosome pool size after inhibition of fusion using the method of the present invention (FIG. 2). Thus, the change in pool size before and shortly after inhibition of fusion is determined and the rate of change (typically expressed over 1 hour) is calculated.
# Bafilomycin A1 was selected as the inhibitor in this example because it is the most commonly used drug in the field.
# MEF cells = experiment: Autophagosome flux assay: live-cell z-stack fluorescence imaging of GFP-LC3 / LysoTracker Red cells, with fusion blocked by 400 nM bafilomycin A1; assay type: cell-based, mouse
# Procedure: For the autophagosomal pool size analysis, the autophagosomes and the lysosomes were visualized and labelled specifically. The autophagolysosomal entities were identified by co-localization analysis. Stably transfected green fluorescent protein-LC3 (GFP-LC3) cells were treated with the lysosome-labelling marker, LysoTracker® Red (Life Technologies, #L-7528) in order to visualize the autophagosomes, the lysosomes and the autophagolysosomes. MEF cells were seeded onto a sterile cover-slip patterned with large fibronectin discs (CYTOO, #10-003-10) in a CYTOO chamber single well plate. Cells were seeded at a density of 2×10^4 cells and incubated for 30 minutes. Thereafter, the chamber was rinsed several times using DMEM until all adherent cells in the non-patterned regions were washed off. The cells were maintained for 2 hours prior to the experiment in DMEM, containing 75 nM LysoTracker Red, in a humidified atmosphere in the presence of 5% CO2 at […]. The chamber plate was then enclosed in an Olympus IX-81 stage of an inverted fluorescence microscope in the presence of 5% CO2 for the duration of the experiment. Serum starvation was avoided, since it would upregulate autophagosome flux and mask the cell-inherent basal autophagosome flux.
# Z-stack image acquisition was performed in order to acquire the complete autophagosomal pool size. An Olympus IX-81 coupled to an MT-20 and xenon burner 150 W and an F-view camera were employed. Temperature and 5% CO2 were controlled. For live cell acquisition, single cell acquisition was performed using automated stage coordinate settings. CellR-based software (Olympus, Soft Imaging) was employed. Images were processed using Cell R imaging software and exported to the modified (for high throughput) automated counting software (ImageJ with WatershedCounting3D plug in (Gniadek et al., 2007)), to count the green and red puncta using voxel dimension 0.08 for both x and y as the search parameters. Puncta count and morphometric analysis were performed using the Watershed Counting3D plugin of ImageJ. Images were converted to RGB colour format and processed by WatershedCounting3D. Puncta count and surface area were determined for each colour puncta from the output file generated. Equations 1, 2 and 3 described above were used to determine the radius, volume and total surface area of spheres.
# In order to assess the basal autophagosome flux in steady state, cells were treated with 400 nM bafilomycin A1 (FIG. 4). The autophagosomal pool size was monitored for two hours post-inhibition and images were acquired at 30 minute intervals. The basal flux, Jbasal, was determined by allowing the autophagic system to reach a steady state under basal conditions (basal flux is the initial slope of the progress curve at the point of inhibition of fusion). Multiple cells (n=10) were assessed simultaneously using a stage control. The transition time, τ, was calculated from the ratio τ=nA/J of the autophagosome pool size and autophagosome flux, and indicated the turnover time of the autophagosome pool at steady state.
# The autophagosome flux J, the autophagosomal pool size nA, and the autophagosomal transition time τ were determined (FIG. 6 and Table 1).
# [2] = 25 nM rapamycin versus basal, increase
Structure (SMILES),"LC3II and p62 bands (LC3, p62 and pmTOR)",Inhibition of autophagosomal-lysosomal fusion ([1]; 400 nM for 2 hours),Cell toxicity ([1]; concentration of 800 nM),"Transition time, % change (% Δ) (MEF cells; 25 nM rapamycin versus basal, decrease)","Autophagosome Pool size nA, % change (% Δ) (MEF cells; [2])","Autophagosome flux J, % change (% Δ) (MEF cells; [2])","Autophagolysosomal transition time, τAL (MEF cells; induced with rapamycin)","Autophagosomal membrane flux, Jmem (MEF cells; induced with rapamycin)","Cytoplasmic volume consumption rate, Jvol (MEF cells; induced with rapamycin)","Autophagosome flux, J (MEF cells; induced with rapamycin (25 nM))",Average volume of an autophagosome (MEF cells; induced with rapamycin (25 nM)),"Number of autophagolysosomes, nAL (MEF cells; induced with rapamycin (25 nM))","Number of autophagosomes, nA (MEF cells; induced with rapamycin (25 nM))","Autophagosomal transition time, τA (MEF cells; induced with rapamycin, τ=nA/J)",Autophagosome Pool size nA (MEF cells; modulator rapamycin (Table 2)),"Autophagosome flux, J (MEF cells; modulator rapamycin (Table 2))",Transition time (MEF cells; modulator rapamycin (Table 2)),"Autophagosome Pool size nA, net change (Δ) (MEF cells; rapamycin versus basal)","Autophagosome flux J, net change (Δ) (MEF cells; rapamycin versus basal)","Transition time, net change (Δ) (MEF cells; rapamycin versus basal, decrease)"
CO/C1=C\C(C)=C\[C@@H](C)[C@@H](O)[C@@H](C)C/C(C)=C/C=C/[C@H](OC)[C@@H]([C@@H](C)[C@@H](O)[C@H](C)[C@@]2(O)C[C@@H](O)[C@H](C)[C@@H](C(C)C)O2)OC1=O [Bafilomycin A1],increases,complete inhibition,cell toxicity was observed,–,–,–,–,–,–,–,–,–,–,–,–,–,–,–,–,–
CO[C@H]1C[C@@H]2CC[C@@H](C)[C@@](O)(O2)C(=O)C(=O)N2CCCC[C@H]2C(=O)O[C@H]([C@H](C)C[C@@H]2CC[C@@H](O)[C@H](OC)C2)CC(=O)[C@H](C)/C=C(\C)[C@@H](O)[C@@H](OC)C(=O)[C@H](C)C[C@H](C)/C=C/C=C/C=C/1C [rapamycin],–,–,–,69.8%,22.4%,315%,2.4 h,8268 μm^2/hr/cell,495 fL/hr/cell,105.4 A/hr/cell,4.7 fL,251.2 AL/cell,16.7 A/cell,0.16 h,16.4 No. of autophagosomes,105.4 No. of autophagosomes/cell*hr^1,0.16 h,3 No. of autophagosomes,80 No. of autophagosomes/cell*hr^1,0.37 h
